Measurements reported in PubChem BioAssay (NCI).
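In this assay, cells in 96-well plates receive the compound at five concentrations for 48 hours. Endpoints are linearly interpolated between the surrounding concentrations. TGI is the concentration that stops growth completely.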

Experiments:
Assay in all cases: NCI anticancer screen, dose series, 48 h
OVCAR-8 ovarian = tested on: OVCAR-8 ovarian
HS 578T breast = tested on: HS 578T breast
OVCAR-3 ovarian = tested on: OVCAR-3 ovarian
UACC-62 melanoma = tested on: UACC-62 melanoma
MALME-3M melanoma = tested on: MALME-3M melanoma
NCI-H460 lung = tested on: NCI-H460 lung
NCI-H226 lung = tested on: NCI-H226 lung
NCI-H522 lung = tested on: NCI-H522 lung
HOP-92 NSCLC = tested on: HOP-92 NSCLC
786-0 renal = tested on: 786-0 renal
HCT-116 colon = tested on: HCT-116 colon
LOX IMVI melanoma = tested on: LOX IMVI melanoma
SK-MEL-28 melanoma = tested on: SK-MEL-28 melanoma
OVCAR-4 ovarian = tested on: OVCAR-4 ovarian
SR leukemia = tested on: SR leukemia
SNB-75 CNS = tested on: SNB-75 CNS
NCI/ADR-RES ovarian = tested on: NCI/ADR-RES ovarian
BT-549 breast = tested on: BT-549 breast
U251 CNS = tested on: U251 CNS
SNB-19 CNS = tested on: SNB-19 CNS

Structure (SMILES)	TGI (OVCAR-8 ovarian) [µM]	TGI (HS 578T breast) [µM]	TGI (OVCAR-3 ovarian) [µM]	TGI (UACC-62 melanoma) [µM]	TGI (MALME-3M melanoma) [µM]	TGI (NCI-H460 lung) [µM]	TGI (NCI-H226 lung) [µM]	TGI (NCI-H522 lung) [µM]	TGI (HOP-92 NSCLC) [µM]	TGI (786-0 renal) [µM]	TGI (HCT-116 colon) [µM]	TGI (LOX IMVI melanoma) [µM]	TGI (SK-MEL-28 melanoma) [µM]	TGI (OVCAR-4 ovarian) [µM]	TGI (SR leukemia) [µM]	TGI (SNB-75 CNS) [µM]	TGI (NCI/ADR-RES ovarian) [µM]	TGI (BT-549 breast) [µM]	TGI (U251 CNS) [µM]	TGI (SNB-19 CNS) [µM]
Cc1cc(C)c2c(=O)cc(-c3ccc(Cl)cc3)[nH]c2n1	> 100	> 100	> 100	> 100	> 59.3	> 100	> 100	> 100	> 100	> 100	> 63.4	> 100	> 75.2	> 100	> 100	> 65	> 74.3	99.4	> 100	> 100
O=C1c2ccccc2C(=O)c2c(OCC3CO3)ccc(OCC3CO3)c21 (stereo not given)	5.94	36.8	10.7	7.95	20	8.86	35.9	13	10.7	6.48	11.5	0.515	12	30.9	1.55	29.9	8.73	15.5	12.1	27.2
O=c1c2cccnc2[nH]c2ccc3scnc3c12	> 10	> 10	> 10	> 10	> 10	> 10	> 10	> 10	> 10	> 10	9.79	> 10	> 10	> 10	> 10	> 10	> 10	> 10	> 10	> 10
O=C(NO)c1cccc(OCc2ccc(Br)cc2)c1	17.4	75.4	> 48.1	20.6	17.6	14	27.6	16.2	46.7	10.9	15.2	> 34.8	> 100	> 100	37.3	> 54.1	28.4	> 100	> 53.8	> 46.4
